Experimental data from patent publication US11124605B2, “Antimicrobial alpha-helical cationic polypeptides” (priority 2015, dated 2021).

Experiments:
[1] = tested on: C101 (Pseudomonas aeruginosa); assay: Minimal inhibitory concentration (MIC); assay type: cell-based; conditions: without polypeptide
Protocol: (§1) Gram-negative bacteria, DH5a (E. coli), MG1655 (E. coli), C101 (Pseudomonas aeruginosa), and Gram-positive bacteria, ATCC12608 (S. aureus), ATCC11778 (Bacillus toyonensis), and methicillin-resistant S. aureus (MRSA) strains, NRS382, NRS383, NRS384 were grown in LB medium at 37° C. Clinical isolated Helicobacter pylori strains, B107, J291, J99, J99-AF, J99-A9 and J99-A11 were incubated in BB with 10% FBS supplemented with vancomycin (5 μg/mL) at 37° C. Among them, J99-AF, J99-A9 and J99-A11 are drug resistant bacteria. For determination of the MIC, polypeptides were dissolved in media using serial dilutions from a stock solution. Into each well of a 96-well plate was added 200 μL of each concentration and 2 μL of bacteria (1×10^8 CFU (colony forming units)) in medium. The plate was incubated at 37° C. The optical density readings of microorganism solutions were measured after 24 h incubation. The MIC was considered as the lowest concentration of peptide where no visual growth of bacteria was detected.

MG1655 (E. coli) = assay: Minimal inhibitory concentration (MIC); assay type: cell-based, Escherichia coli; conditions: without polypeptide
Protocol: as §1

DH5α (Escherichia coli) = assay: Minimal inhibitory concentration (MIC); assay type: cell-based; conditions: without polypeptide
Protocol: Gram-negative bacteria, DH5a (E. coli), MG1655 (E. coli), C101 (Pseudomonas aeruginosa), and Gram-positive bacteria, ATCC12608 (S. aureus), ATCC11778 (Bacillus toyonensis), and methicillin-resistant S. aureus (MRSA) strains, NRS382, NRS383, NRS384 were grown in LB medium at 37° C. […] For determination of the MIC, polypeptides were dissolved in media using serial dilutions from a stock solution. Into each well of a 96-well plate was added 200 μL of each concentration and 2 μL of bacteria (1×10^8 CFU (colony forming units)) in medium. The plate was incubated at 37° C. The optical density readings of microorganism solutions were measured after 24 h incubation. The MIC was considered as the lowest concentration of peptide where no visual growth of bacteria was detected.

[2] = tested on: ATCC12608 (Staphylococcus aureus); assay: Minimal inhibitory concentration (MIC); assay type: cell-based; conditions: without polypeptide
Protocol: as §1
The stability of polypeptide was tested in the MIC assay in different environments, including salts, serum, plasma, tear fluid, and mucin. […]

[3] = tested on: ATCC11778 (Bacillus toyonensis); assay: Minimal inhibitory concentration (MIC); assay type: cell-based; conditions: without polypeptide
Protocol: as §1

[4] = tested on: trypsin, pronase, elastase from Pseudomonas aeruginosa, elastase from human leukocytes; assay: Stability of polypeptides against protease (HPLC); assay type: in vitro ADME; conditions: 8 h incubation with trypsin, P. aeruginosa elastase or human leukocyte elastase
Protocol: As a positive control, LL-37 (0.1 mg/mL) was also incubated with trypsin (0.1 mg/mL) or pronase (12 mg/L) or Pseudomonas Aeruginosa elastase (0.6 mg/L) in Tris buffer (pH 7.4) at 37° C. LL-37 (0.1 mg/mL) was incubated with elastase from human leukocytes (2.5 mg/L) in sodium acetate buffer at 37° C. After 8 h of incubation, the samples were taken out for HPLC analyses.

C[C@H]1c2cccc(O)c2C(=O)C2=C(O)[C@]3(O)C(=O)C(C(N)=O)=C(O)[C@@H](N(C)C)[C@@H]3[C@@H](O)[C@@H]21 [Doxycycline, doxycycline]
MIC of antibiotic [1]: 288.0 µM
MIC of antibiotic (MG1655 (E. coli)): 4.5 µM

CO[C@H]1/C=C/O[C@@]2(C)Oc3c(C)c(O)c4c(O)c(c(/C=N/N5CCN(C)CC5)c(O)c4c3C2=O)NC(=O)/C(C)=C\C=C\[C@H](C)[C@H](O)[C@@H](C)[C@@H](O)[C@@H](C)[C@H](OC(C)=O)[C@@H]1C [Rifampicin, rifampicin]
MIC of antibiotic [1]: 77.8 µM
MIC of antibiotic (MG1655 (E. coli)): 9.7 µM

[H]/N=C(/N)N[C@H]1[C@H](O)[C@@H](O)[C@H](O[C@@H]2O[C@@H](C)[C@](O)(C=O)[C@H]2O[C@@H]2O[C@@H](CO)[C@H](O)[C@@H](O)[C@@H]2NC)[C@@H](N/C(N)=N\[H])[C@@H]1O [Streptomycin, streptomycin]
MIC of antibiotic (DH5α (Escherichia coli)): 6.9 µM
MIC of antibiotic [2]: 6.9 µM
MIC of antibiotic [3]: 6.9 µM

LL-37
proteolytic degradation by HPLC [4]: readily degraded

gentamicin
MIC of antibiotic [1]: 8.4 µM
MIC of antibiotic (MG1655 (E. coli)): 2.1 µM
